Here are results for four substances from patent US12589160B2, “Peptide-derived therapeutics targeting KDM5C for the treatment of cancer” (NUVOBIO CORPORATION, priority 2019, dated 2026).

In data set [1] the test system is H3K4me3 levels in HCT 116 cells. The experiment in a line: Histone H3K4me3 status by western blot of histone extracts. The class given is cell-based. As to conditions: for global H3K4me3 levels: HCT 116. The method, then:
FIG. 9. Comparison of KDM5 inhibitors, EP4-TAT and CPI-455. […] (B) Relative H3K4me3 levels were monitored in histone extracts from HCT 116 cells.
The EP4-TAT inhibitor from all the above experiments were tested for histone methylation status in HCT 116 cells. 3×10^6 cells were plated in 10 cm dish and incubated overnight. Cells were then treated with the inhibitors at various concentrations (0.001 to 15 μM). Cells (5×10^6 cells/mL), 24 hr of post dosing, were collected in 15 mL falcon tube and centrifuged at 300×g for 10 min. The supernatant was discarded and the cells are washed with iced cold PBS. The cell pellet is flash-frozen in liquid nitrogen and stored at −80° C. Histone isolation is done using standard protocol. To summarize, cells were re-suspended in 1 mL hypotonic lysis buffer (10 mM Tris-HCl pH 8, 1 mM KCl, 1.5 mM MgCl2 and 1 mM DTT) containing protease inhibitor. The cells were transferred to 1.5 mL tube and incubated for 30 min on rotor at 4° C. to promote hypotonic swelling and lysis. The intact nuclei are collected by centrifugation at 10,000×g for 10 min in a cooled tabletop centrifuge. The supernatant is entirely discarded and pellets were re-suspended completely in 600 μL 0.4N H2SO4 and incubated overnight on rotor at 4° C. The nuclear debris were removed by centrifugation at 16,000×g for 10 min. The supernatant containing the histones were transferred to a fresh 1.5 mL tube and precipitated by adding 195 μL TCA (33%) drop by drop. The reaction is incubated at 4° C. overnight under rotation. The histones were pelleted by centrifugation at 16,000×g for 10 min. After complete removal of the supernatant carefully, the histone pellets were washed with ice-cold acetone to remove the left-over acids without disturbing the pellet. Finally, the pellets were air dried for 30 min at room temperature. The histone pellets were dissolved in 100 μL milliQ water and stored frozen at −20° C. Samples of 1, 3 and 5 μL of histones were separated on 15% SDS-PAGE gel and stained with Coomassie Brilliant Blue and characterized on the quality and concentration of the histone. The locations of the linker histone H1 and the core histones H3, H2B, H2A and H4 were noted.
For western blot, of total of 1 μL of histones were separated on 15% SDS-PAGE and transferred overnight at 15V on PVDF membrane. Following blocking with 5% nonfat dry milk in 1×TBST for 1 hr, the membrane containing histones lanes treated with inhibitor, were probed with H3K4Me3 (Abcam) primary antibody (1:2500) in 1×PBST. Both the membranes were incubated overnight at 4° C. under rotation. […] Histone proteins were detected by Supersignal™ West Pico PLUS Chemiluminescent substrate (ThermoFisher Scientific) using the Chemidoc XRS+ imaging system (BioRad). […]
(In western blotting, separated proteins are transferred to a membrane and probed.)

The next data set relates to KDM5. Conditions: given as 'in vivo'; Vinogradova et al., 2016; read-out: IC50 of KDM5 inhibition; cited from earlier work.
Data set [2] deals with HCT 116 cells. The data set is described as follows: Cell viability, resazurin reduction assay. The class given is cell-based. Conditions: for loss of cell viability: HCT 116, 10 μM, cell penetrating peptide by itself. On the procedure: (§1) FIG. 7. Cellular EP4 inhibitor delivery and viability. (A) Diagrammatic representation of EP4 inhibitor peptide showing N-terminally tagged 6-carboxyfluorescein and C-terminally tagged TAT cell delivery peptide. (B) Immunofluorescence microscopy showing internalization of EP4-TAT peptide (shown in green) to HCT 116 cells imaged 24 hr post-treatment with inhibitor. (C) Cell viability following 10 μM treatment of EP4 peptide conjugated to cell penetrating peptides, TAT, PR9 and CPP.
Cell viability was measured using the Resazurin reduction assay which indirectly quantifies living cells through the metabolically active reduction of resazurin to fluorescent resorufin. This assay allows to maintain cells viability and, therefore, to monitor cell growth with time. Exponentially growing cells were seeded into 96-well plates at the density of 2.0×10^4 cells/mL and incubated overnight. The media was replaced with fresh media prior to inhibitor treatment. Cells were treated with […] of inhibitor peptide for 24 hr. The inhibitor peptide was diluted in the cell culture media (DMEM −/−) in the absence of serum from a 5 mM stock. All the treated cells were compared to the control (TAT alone peptide with equivalent quantity of DMSO) which were considered as 100% viable. One set of wells also prepared with medium only for background subtracting and instrument gain adjustment. The experiments were carried out in triplicate and expressed as mean±SD. A 10% resazurin solution (0.15 mg/ml stock dissolved in PBS, filter sterilized and stored protected from light at 4° C.) was then added to each well and incubated for 2 hr. The fluorescence was recorded using a multiwell plate reader (Perkin Elmer) at Ex. 560 nm and Em. 610 nm.
The cell penetrating peptide tagged EP4 inhibitors are then tested for loss of cell viability on colorectal carcinoma HCT 116 cell line at a 10 μM dose (FIG. 7C).
For orientation: The colour change of resazurin is a common sign of viable cells or microbes.

In data set [3] the test system is HCT 116 cells. The data set is described as follows: Internalization of FITC-labelled peptides (fluorescence microscopy). The class given is cell-based. As to conditions: HCT 116, 10 μM, 24 hr. The method, then: as §1
To evaluate the internalization of FITC-labelled peptides, exponentially growing HCT 116 cells were seeded on 6 well plate at a density of 2×10^5 cells per well and incubated overnight. After overnight incubation, the media (DMEM with penstrep and 10% FBS) was replaced with fresh media supplemented with 10 μM FITC-labelled inhibitor peptides. Following the incubation (24 hr), cells were washed three times with ice cold PBS to remove the excess extracellular complexes. Cells were then stained with Hoechst dye (1:2000 dilution from 10 mg/mL stock in PBS) directly adding sufficient staining solution to the well. Cells were incubated for 10 min with the dye, protected from light. The staining solution is discarded and the cells were washed 3 times with PBS and imaged directly under fluorescent microscope.
Our EP4 KDM5C inhibitor peptide were tested for a decrease in cell viability. […]

For the next data set, the system named is NCI60 cancer cell lines. The data set is described as follows: NCI60 cancer panel screen (SRB staining). The class given is cell-based. Conditions: 48 h, normalized to TAT-alone; SNB-75, A498, RXF393, UO-31, HOP-92, NCI-226, EKVX. The method, then:
FIG. 10. NCI60 cancer panel screen of EP4-TAT. EP4-TAT and TAT-alone peptides were sent to the National Cancer Institute—Developmental Therapeutics program for screening effect on cell growth on the NCI60 cancer panel. Cell growth was monitored post-treatment with peptide in a dose-responsive manner (n=4). EP4-TAT effects were normalized to TAT-alone effects to control for delivery peptide. Following drug addition, the plates were incubated for an additional 48 hours at 37° C., 5% CO2, 95% air, and 100% relative humidity. Cell growth was monitored by Sulforhodamine B (SRB) staining. GI50 values are defined at the concentration of EP4-TAT that decreased cell growth by 50%.
Following the receipt at the NCI, cell-active EP4-TAT was be tested for its effects on cell viability in a dose-responsive manner in the complete panel. The effect of EP4-TAT on cell viability was carried out using Sulforhodamine B (SRB) staining in all 60 cell lines (n=4). Using several measurements [time zero (Tz), control growth (C), and growth at the five inhibitor concentrations (Ti)], the percentage growth will be calculated at each inhibition concentration. […]

Data set [4] relates to HCT 116 cells. The data set is described as follows: Flow cytometry, PI staining (subG1 / apoptosis). Format: cell-based. As to conditions: HCT 116, 2 μM. The method, then: FIG. 8. Global cell cycle distribution in EP4-TAT treated HCT 116 cells. EP4-TAT increases global H3K4me3 levels in HCT 116 cells. (A) Two-parameter flow cytometric analysis of BrdU incorporation and DNA content was performed following a 24 hr exposure of 2 μM and 5 μM EP4-TAT to HCT 116 cells. (B) The proportion of propidium iodine stained cells were represented in each phase of the cell cycle cell cycle and (C) dose-response correlation of BrdU positive cells were represented. These values are expressed relative to untreated controls. Each value in B, C represents the mean (+/−SEM) determined from 3 independent experiments.
A total of 0.3×10^6 HCT 116 cells were plated in 6 well-plate and incubated overnight. Cells were treated with the inhibitor, DMSO and TAT alone controls. For each condition, approximately 1×10^6 HCT 116 cells were collected along with the floating cells in the media by centrifugation at 300×g for 10 min. The cells were then washed with 5 mL of ice-cold PBS and re-suspended in 0.5 mL of ice-cold PBS. […] The PI-treated cells were incubated at 37° C. for 30 min and then analyzed by a flow cytometry (BD Accuri™ C6 Plus). […]
To determine whether loss in cell viability was associated with increased apoptosis, HCT 116 cells were treated with 2 μM of EP4-TAT and analyzed by PI staining.
On the technique in general: In flow cytometry, cells or beads pass a laser one at a time.

As usually defined, the IC50 is the concentration at which inhibition is half-maximal. Turning to CPI-455 [reference compound], the “global H3K4me3 levels” value in data set [1] was “increase global H3K4me3 levels”. In addition, the 50% inhibitory concentration (IC50) with KDM5 is about 25 µM.

As to FFLIPKGRRRRRRRRR [PR9], the “loss of cell viability” value with HCT 116 cells [2] was 30%.

As for “RRWRRWRRWRR [CPP, cell penetrating peptide, chemically synthesized, cationic]”, the “loss of cell viability” value with HCT 116 cells [2] is reported as 50%.

“TEDSKTHHH(SEQ ID NO: 4){6-aminohexanoic acid}GRKKRRQRRRPPQ(SEQ ID NO: 45) (TEDSKTHHHGRKKRRQRRRPPQ) [EP4-TAT]”: in data set [1], the “global H3K4me3 levels” value was “increase global H3K4me3 levels”. Besides, the “demethylation of histone H3K4 tri-methylation” value in data set [1] (HCT 116, 25 nM) is given as “inhibited”. In data set [1] (HCT 116, relative H3K4me3 levels), the “cellular KDM5C inhibition compared with CPI-455” value is on record as “more effective”. Further, the cellular internalization entry in the data set on HCT 116 cells [3] is given as “internalization”. Besides, the “loss of cell viability (comparison of cell penetrating peptide tags)” value in the data set on HCT 116 cells [2] (HCT 116, 10 μM dose) was “maximum and consistent loss of cell viability”. Further, the “growth inhibitory (GI50) effect” value with NCI60 cancer cell lines was “growth inhibitory (GI50) effect in 7 lines”. Also, the “percentage of subG1 peak” value in the data set on HCT 116 cells [4] is 52.8%.
